{"source": "ChEMBL document CHEMBL1681719", "about": "“Synthesis and evaluation of 1,5-diaryl-substituted tetrazoles as novel selective cyclooxygenase-2 (COX-2) inhibitors” (Bioorg Med Chem Lett, 2011)", "key": {"[1]": {"molecular_target": "T1, Prostaglandin G/H synthase 2 (Homo sapiens, UniProt P35354)", "T1 sequence (P35354 whole entry)": "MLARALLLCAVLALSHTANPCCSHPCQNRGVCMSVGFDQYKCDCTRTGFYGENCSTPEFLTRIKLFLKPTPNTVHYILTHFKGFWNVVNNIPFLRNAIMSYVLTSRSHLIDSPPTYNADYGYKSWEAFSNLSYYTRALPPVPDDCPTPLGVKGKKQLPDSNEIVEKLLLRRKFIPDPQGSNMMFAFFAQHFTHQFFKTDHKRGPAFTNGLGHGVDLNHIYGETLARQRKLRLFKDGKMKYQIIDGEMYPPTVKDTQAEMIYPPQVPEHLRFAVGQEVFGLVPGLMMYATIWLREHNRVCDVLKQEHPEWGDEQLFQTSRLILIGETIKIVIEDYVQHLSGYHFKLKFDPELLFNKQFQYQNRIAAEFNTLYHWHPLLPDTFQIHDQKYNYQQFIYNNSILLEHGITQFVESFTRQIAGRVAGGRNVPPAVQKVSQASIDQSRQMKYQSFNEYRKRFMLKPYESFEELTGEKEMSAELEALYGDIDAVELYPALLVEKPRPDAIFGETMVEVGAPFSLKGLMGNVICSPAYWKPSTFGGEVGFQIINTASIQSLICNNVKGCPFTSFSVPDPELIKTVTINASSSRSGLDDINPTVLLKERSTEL", "experiment": "Inhibition of human recombinant COX-2 by fluorescence assay"}, "[2]": {"experiment": "Selectivity index ratio of IC50 for ovine COX-1 to IC50 for human recombinant COX-2"}, "[3]": {"molecular_target": "T2, Prostaglandin G/H synthase 1 (Ovis aries, UniProt P05979)", "T2 sequence (P05979 whole entry)": "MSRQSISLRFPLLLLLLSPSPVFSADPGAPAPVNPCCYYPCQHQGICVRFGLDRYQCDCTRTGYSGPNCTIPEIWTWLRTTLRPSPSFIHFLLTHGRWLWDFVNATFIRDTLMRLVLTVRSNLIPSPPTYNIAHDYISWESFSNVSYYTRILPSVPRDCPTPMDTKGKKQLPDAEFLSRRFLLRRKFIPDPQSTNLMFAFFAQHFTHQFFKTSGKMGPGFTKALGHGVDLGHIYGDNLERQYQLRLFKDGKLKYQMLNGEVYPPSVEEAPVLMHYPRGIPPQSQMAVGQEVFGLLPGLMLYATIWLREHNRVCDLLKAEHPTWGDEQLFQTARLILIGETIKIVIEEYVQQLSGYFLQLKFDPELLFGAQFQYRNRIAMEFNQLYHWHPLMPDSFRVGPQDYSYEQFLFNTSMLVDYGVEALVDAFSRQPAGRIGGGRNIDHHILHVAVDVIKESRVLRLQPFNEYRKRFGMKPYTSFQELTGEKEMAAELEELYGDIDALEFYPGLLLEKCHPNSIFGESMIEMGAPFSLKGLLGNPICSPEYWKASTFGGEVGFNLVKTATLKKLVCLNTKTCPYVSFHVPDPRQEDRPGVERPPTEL", "experiment": "Inhibition of ovine COX-1 by fluorescence assay"}}}
{"smiles": "CS(=O)(=O)c1ccc(-c2nnnn2-c2ccc(Cl)cc2)cc1", "values": [{"measurement": "IC50", "setting": "[1]", "result": 110, "unit": "µM"}, {"measurement": "Ratio IC50", "setting": "[2]", "result": 4.5}, {"measurement": "IC50", "setting": "[3]", "result": 500, "unit": "µM"}]}
{"smiles": "CS(=O)(=O)c1ccc(-c2nnnn2-c2ccc(F)cc2)cc1", "values": [{"measurement": "IC50", "setting": "[1]", "result": 2.7, "unit": "µM"}, {"measurement": "Ratio IC50", "setting": "[2]", "result": 237}, {"measurement": "IC50", "setting": "[3]", "result": 640, "unit": "µM"}]}
{"smiles": "COc1ccc(-n2nnnc2-c2ccc(S(C)(=O)=O)cc2)cc1", "values": [{"measurement": "IC50", "setting": "[1]", "result": 2, "unit": "µM"}, {"measurement": "Ratio IC50", "setting": "[2]", "result": 210}, {"measurement": "IC50", "setting": "[3]", "result": 420, "unit": "µM"}]}
{"smiles": "Cc1ccc(-n2nnnc2-c2ccc(S(C)(=O)=O)cc2)cc1", "values": [{"measurement": "IC50", "setting": "[1]", "result": 45, "unit": "µM"}, {"measurement": "Ratio IC50", "setting": "[2]", "result": 180}, {"measurement": "IC50", "setting": "[3]", "result": 8100, "unit": "µM"}]}
{"smiles": "CS(=O)(=O)c1ccc(-c2nnnn2-c2ccccc2)cc1", "values": [{"measurement": "IC50", "setting": "[1]", "result": 200, "unit": "µM"}, {"measurement": "Ratio IC50", "setting": "[2]", "result": 18.5}, {"measurement": "IC50", "setting": "[3]", "result": 3700, "unit": "µM"}]}
